Assay results reported in article PMC10476265, “Optimized LC-MS/MS Method for the Detection of ppCCK(21–44): A Surrogate to Monitor Human Cholecystokinin Secretion” (Journal of Proteome Research, 2023).
Where no end group is shown, it is not given here.

Experiments:
[1] = tested on: human duodenal organoid cultures; test: Human duodenal organoid secretion assay: CCK8 and ppCCK(21–44) in supernatants and lysates by LC-MS/MS; type: cell-based; settings: 10 μM forskolin + 1 mM glucose vs 1 mM glucose alone, 1 h, 2D human intestinal organoids; similar for both peptides; n = 12 from six experiments in duplicate
Description: Human duodenal organoid cultures were established for secretion assays using our established protocol.[16] To improve peptide yield, the cultures were grown in a 6-well plate format, and 400 μL of secretion buffer (0.001% fatty acid-free BSA and 1 mM glucose in saline buffer[16]) was used in the experiments.
Method development, validation, and calibration/quantitation samples were prepared by spiking working solutions of CCK8, CCK33, and ppCCK(21–44) in organoid secretion buffer. For initial CCK detection, lysed organoid cultures were prepared using 6 M guanidine hydrochloride (aq) and snap-frozen prior to extraction.
Based on the experimental design results, the extraction of CCK peptides from organoid lysate and secretion samples was adjusted from previous methods,[16],[17] as per the following steps. […]
To assess CCK secretion, we cultured human intestinal organoids in 2D cultures[16] and collected supernatants and cell lysates after 1 h incubation in either 1 mM glucose or 1 mM glucose and 10 μM forskolin, a known strong stimulus for secretion of a number of gut hormones, including CCK.[17],[18] We were unable to reliably detect sulfated CCK8 in supernatants; however, desulfated CCK8 and ppCCK(21–44) were detected under both culture conditions. […]

[2] = tested on: cholecystokinin (CCK8) (26–33), non-sulfated enzyme immunoassay kit; settings: reported for the kit; ref EK-069-04, Phoenix Peptide; cited from earlier work
Excerpt: (§1) A cholecystokinin (CCK8) (26–33), non-sulfated enzyme immunoassay kit (EK-069-04, Phoenix Peptide, Germany), with 100% reported cross-reactivity with sulfated and non-sulfated CCK8 as well as CCK33 and gastrin, was used for assay validation. The pooled human plasma potassium EDTA anticoagulant (K2EDTA, BioIVT, West Sussex, U.K.) from healthy controls was used as a matrix for the preparation of calibration standards during the clinical sample analysis.

[3] = tested on: cholecystokinin (CCK8) (26–33), non-sulfated enzyme immunoassay kit; test: Commercial CCK8 enzyme immunoassay (EK-069-04, Phoenix Peptide): detection and cross-reactivity; type: binding; settings: 50 to 750 pg/mL spiked in secretion buffer, SPE eluate dried and reconstituted in EIA buffer
Excerpt: as §1
We compared the performance of the LC-MS/MS method with a commercially available EIA (EK-069-04, Phoenix Peptide). CCK8 solutions were spiked at different concentrations either alone or in the presence of ppCCK(21–44) into secretion buffer, duplicate samples were extracted as described, and prior to EIA analysis, the SPE eluates were dried under nitrogen and reconstituted in EIA buffer. The concentrations were deduced alongside either extracted calibration curves for LC-MS/MS analysis or non-extracted standard curves as supplied in the EIA kit.

CCK1 receptor (CCK1R) = settings: statement of the introduction; cited from earlier work
Excerpt: Post-translational processing of preproCCK (ppCCK), including tyrosine-sulfation in the trans-Golgi network and subsequent proteolytic cleavage by prohormone convertases and carboxypeptidase E combined with C-terminal amidation by peptidylglycine α-amidating monooxygenase[5],[6] produces a number of different bioactive CCK peptides (Figure 1). For activation of the CCK1 receptor (CCK1R), which largely mediates the peripheral outcomes described above, sulfation of the CCK peptide is critical, and the bioactive products of ppCCK, named after the number of amino acids retained in the final produc ...

C=C[C@@]1(C)CC(=O)[C@]2(O)[C@@]3(C)[C@@H](O)CCC(C)(C)[C@@H]3[C@H](O)[C@H](OC(C)=O)[C@@]2(C)O1 [forskolin]
fold stimulation of CCK8 and ppCCK(21–44) secretion [1]: ~2.3 fold

CCK33: 33 amino acid bioactive CCK isoform (KAPSGRMSIVKNLQNLDPSHRISDRDYMGWMDF-NH2; ends and bridges not checked; UniProt P06307 71-103, looked up)
cross-reactivity of the EIA kit [2]: 100%

[Pyr]-QPVPPADPAGSGLQRAEEAPRRQL-acid [ppCCK(21–44), N-terminal peptide fragment of proCCK, surrogate analyte for CCK secretion]
detection by EIA [3]: did not detect

gastrin: closely related peptide hormone sharing the bioactive C-terminus with CCK8
cross-reactivity of the EIA kit [2]: 100% | activity at CCK1R (CCK1 receptor (CCK1R)): no activity

non-sulfated CCK8: CCK8 without tyrosine sulfate, cross-reactant of the EIA kit
cross-reactivity of the EIA kit [2]: 100%
